Source: patent US20220288057A1, “CONJOINT THERAPY FOR TREATING SEIZURE DISORDERS” (XENON PHARMACEUTICALS INC., priority 2021, published 2022)
Where “and” joins values, the source holds several entries; their conditions need not be identical. Equal entries are not always repeated.

Experiments:
CF-1 mice = assay: Observation for clinical signs in 6 Hz studies; type: in vivo, mouse; settings: Compound A 8 mg/kg PO, Study 3A
Method: Any qualitative changes from normal behavior were recorded.

[1] = Plasma and brain concentrations after MES testing (UHPLC-ESI-MS/MS); settings: for concentration at 0.5 h / concentration at 2 h: CF-1, mouse, in vivo, po;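 for all read-outs here: brain and plasma were sampled from mice right after the efficacy test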
[2] = Compound A 0.25 mg/kg PO 2 h alone (phenytoin study), 0.25 mg/kg
[3] = Compound A 0.75 mg/kg PO 2 h alone (phenytoin study), 0.75 mg/kg
[4] = Compound A 1 mg/kg PO 2 h alone (levetiracetam study), 1 mg/kg
[5] = Compound A 1 mg/kg PO 2 h alone (phenytoin study), 1 mg/kg
[6] = Compound A 1 mg/kg PO 2 h alone (valproic acid study), 1 mg/kg
[7] = Compound A 2.5 mg/kg PO 2 h alone (phenytoin study), 2.5 mg/kg
[8] = analyte Compound A, 0.25 mg/kg + 2 mg/kg Phenytoin

SMILES: Cc1cc(N2CCc3cc(F)ccc3C2)cc(C)c1NC(=O)CC(C)(C)C [Compound A, N-[4-(6-fluoro-3,4-dihydro-1H-isoquinolin-2-yl)-2,6-dimethylphenyl]-3,3-dimethylbutanamide]
- brain concentration of the one animal that showed tremor and was cold to the touch (CF-1 mice): 1650 nM
- plasma concentration of the one animal that showed tremor and was cold to the touch (CF-1 mice): 1160 nM
- concentration at 0.5 h ([1]; 1 mg/kg, Concentration Brain, Compound A 1 mg/kg PO single dose, tissue collection 0.5 hr): 270 nM
- concentration at 2 h ([1]; 1 mg/kg, Concentration Brain, Compound A 1 mg/kg PO single dose, tissue collection 2 hr): 190 nM
- concentration at 0.5 h ([1]; 1 mg/kg, Concentration Brain, Compound A 1 mg/kg PO, 0.5 hr): 97.9 ng/g
- concentration at 2 h ([1]; 1 mg/kg, Concentration Brain, Compound A 1 mg/kg PO, 2 hr): 70.2 ng/g
- concentration at 0.5 h ([1]; 1 mg/kg, Concentration Plasma, Compound A 1 mg/kg PO single dose, tissue collection 0.5 hr): 130 nM
- concentration at 2 h ([1]; 1 mg/kg, Concentration Plasma, Compound A 1 mg/kg PO single dose, tissue collection 2 hr): 100 nM
- concentration at 0.5 h ([1]; 1 mg/kg, Concentration Plasma, Compound A 1 mg/kg PO, 0.5 hr): 48.9 ng/mL
- concentration at 2 h ([1]; 1 mg/kg, Concentration Plasma, Compound A 1 mg/kg PO, 2 hr): 35.8 ng/mL
- concentration at 0.5 h ([1]; 2 mg/kg, Concentration Brain, Compound A 2 mg/kg PO single dose, tissue collection 0.5 hr): 360 nM
- concentration at 2 h ([1]; 2 mg/kg, Concentration Brain, Compound A 2 mg/kg PO single dose, tissue collection 2 hr): 210 nM
- concentration at 0.5 h ([1]; 2 mg/kg, Concentration Brain, Compound A 2 mg/kg PO, 0.5 hr): 132 ng/g
- concentration at 2 h ([1]; 2 mg/kg, Concentration Brain, Compound A 2 mg/kg PO, 2 hr): 75.8 ng/g
- concentration at 0.5 h ([1]; 2 mg/kg, Concentration Plasma, Compound A 2 mg/kg PO single dose, tissue collection 0.5 hr): 220 nM
- concentration at 2 h ([1]; 2 mg/kg, Concentration Plasma, Compound A 2 mg/kg PO single dose, tissue collection 2 hr): 130 nM
- concentration at 0.5 h ([1]; 2 mg/kg, Concentration Plasma, Compound A 2 mg/kg PO, 0.5 hr): 80.7 ng/mL
- concentration at 2 h ([1]; 2 mg/kg, Concentration Plasma, Compound A 2 mg/kg PO, 2 hr): 46.7 ng/mL
- concentration at 0.5 h ([1]; 4 mg/kg, Concentration Brain, Compound A 4 mg/kg PO single dose, tissue collection 0.5 hr): 640 nM
- concentration at 2 h ([1]; 4 mg/kg, Concentration Brain, Compound A 4 mg/kg PO single dose, tissue collection 2 hr): 360 nM
- concentration at 0.5 h ([1]; 4 mg/kg, Concentration Brain, Compound A 4 mg/kg PO, 0.5 hr): 235 ng/g
- concentration at 2 h ([1]; 4 mg/kg, Concentration Brain, Compound A 4 mg/kg PO, 2 hr): 131 ng/g
- concentration at 0.5 h ([1]; 4 mg/kg, Concentration Plasma, Compound A 4 mg/kg PO single dose, tissue collection 0.5 hr): 420 nM
- concentration at 2 h ([1]; 4 mg/kg, Concentration Plasma, Compound A 4 mg/kg PO single dose, tissue collection 2 hr): 230 nM
- concentration at 0.5 h ([1]; 4 mg/kg, Concentration Plasma, Compound A 4 mg/kg PO, 0.5 hr): 154 ng/mL
- concentration at 2 h ([1]; 4 mg/kg, Concentration Plasma, Compound A 4 mg/kg PO, 2 hr): 83 ng/mL
- concentration at 0.5 h ([1]; 8 mg/kg, Concentration Brain, Compound A 8 mg/kg PO single dose, tissue collection 0.5 hr): 1090 nM
- concentration at 2 h ([1]; 8 mg/kg, Concentration Brain, Compound A 8 mg/kg PO single dose, tissue collection 2 hr): 560 nM
- concentration at 0.5 h ([1]; 8 mg/kg, Concentration Brain, Compound A 8 mg/kg PO, 0.5 hr): 402 ng/g
- concentration at 2 h ([1]; 8 mg/kg, Concentration Brain, Compound A 8 mg/kg PO, 2 hr): 208 ng/g
- concentration at 0.5 h ([1]; 8 mg/kg, Concentration Plasma, Compound A 8 mg/kg PO single dose, tissue collection 0.5 hr): 710 nM
- concentration at 2 h ([1]; 8 mg/kg, Concentration Plasma, Compound A 8 mg/kg PO single dose, tissue collection 2 hr): 430 nM
- concentration at 0.5 h ([1]; 8 mg/kg, Concentration Plasma, Compound A 8 mg/kg PO, 0.5 hr): 261 ng/mL
- concentration at 2 h ([1]; 8 mg/kg, Concentration Plasma, Compound A 8 mg/kg PO, 2 hr): 158 ng/mL
- Brain concentration, Mean [1, 2]: 40 nM
- Plasma concentration, Mean [1, 2]: 0.01 μM and 4.3 ng/mL
- Brain concentration, Mean [1, 3]: 120 nM
- Plasma concentration, Mean [1, 3]: 0.03 μM and 11.7 ng/mL
- Brain concentration, Mean [1, 4]: 60 nM
- Plasma concentration, Mean [1, 4]: 0.03 μM and 11.1 ng/mL
- Brain concentration, Mean [1, 5]: 90 nM
- Plasma concentration, Mean [1, 5]: 0.05 μM and 17.0 ng/mL
- Brain concentration, Mean [1, 6]: 160 nM
- Plasma concentration, Mean [1, 6]: 0.066 μM and 24 ng/mL
- Concentration Plasma ([1]; Compound A 1 mg/kg PO single dose, tissue collection 2 hr, 1 mg/kg): 100 nM
- Brain concentration, Mean [1, 7]: 390 nM
- Plasma concentration, Mean [1, 7]: 45.1 ng/mL and 0.12 μM
- Brain concentration, Mean [1, 8]: 50 nM
- Plasma concentration, Mean [1, 8]: 0.02 μM and 5.6 ng/mL
- Brain concentration, Mean ([1]; analyte Compound A, 0.75 mg/kg + 2 mg/kg Phenytoin): 150 nM
